# Test results reported in article PMC11671597, “The anticancer effect of metformin targets VDAC1 via ER-mitochondria interactions-mediated autophagy in HCC” (Experimental & Molecular Medicine, 2024).
# Biological target: voltage-dependent anion channel 1 (VDAC1) (Homo sapiens, UniProt P21796)
# Assay: microscale thermophoresis (MST); supported by dose-dependent DARTS in HepG2 mitochondrial lysate (EC50 […]) and loss of protection in D9A/E203A mutants
# Format: binding
# Sequence of voltage-dependent anion channel 1 (VDAC1) (P21796 2-283): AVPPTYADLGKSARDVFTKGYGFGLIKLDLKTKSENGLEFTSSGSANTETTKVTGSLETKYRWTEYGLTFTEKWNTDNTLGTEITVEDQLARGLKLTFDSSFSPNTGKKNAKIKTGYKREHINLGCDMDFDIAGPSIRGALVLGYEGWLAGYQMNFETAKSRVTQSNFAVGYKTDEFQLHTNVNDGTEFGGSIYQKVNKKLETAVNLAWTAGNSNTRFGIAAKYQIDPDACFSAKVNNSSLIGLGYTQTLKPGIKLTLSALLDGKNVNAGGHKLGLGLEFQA
structure (smiles),measurement,value
CN(C)C(=N)N=C(N)N [Metformin],Kd,204 µM
